{"source": "patent US20250195530A1", "about": "“POLQ INHIBITORS” (ASTRAZENECA AB, priority 2022, published 2025)", "data": [{"tested_on": "DLD-1 BRCA2−/− cells", "assay": "Homologous recombination synthetic lethal inhibition of proliferation, DLD-1 BRCA2-/- (Cell Titre Glo 3D)", "assay_type": "cell-based", "conditions": "Homo sapiens, DLD-1, DLD-1 BRCA2-/- proliferation; column head only partly shown; read-out: POLQ PD Prolif Lumin (converted)", "description": "(§1) This assay identifies anti-proliferative effects of POLQ compounds in the homologous recombination deficient colorectal cell line DLD-1 BRCA2−/− over 8-9 population doublings (7 days for DLD-1 and 12 days for DLD-1 BRCA2−/−). DLD1 BRCA2 wt are used as a control to detect cell toxic effects not specific to homologous recombination deficiency.\n(§2) DLD-1 BRCA2−/− and DLD-1 cells were kept in continuous culture in Assay Medium (RPMI 1640 phenol red free (Sigma R7509) containing 1% GlutaMAX (Gibco 35050) and 10% Foetal Bovine Serum (Gibco 10270-106)). On the day of the assay cells in culture of ˜80-90% confluent were used. Cell monolayers were washed with 10 mL PBS, then removed and added 2 mL TrypLE Express (Gibco 12604). The cells with TrypLE Express were incubated for 5 minutes in cell culture incubator and then the detached cells resuspend in 15 mL Assay Medium. Cells were counted using a ViCell and the cell images were monitored for clumps of cells, ideally they should be single or <3 cell clusters. The cells were diluted to 3,000 cells/mL of DLD-1 BRCA2−/− and 1,500 cells/mL of DLD-1 in Assay Medium and 100 μL added per well of transparent bottomed, black, tissue culture-treated 96-well plates (CoStar, No. 3904) Assay Ready Plates. The Assay Ready Plates contain a 10 point 10 μM to 0.51 nM dose range with three-fold dilutions in DMSO with a final volume of 100 nL. The plates were incubated at 37° C. with 5% C02 for 6 days. On day 6, 100 μL/well of Assay Medium was added to duplicate Assay Ready Plates. 90 μL of culture medium was removed from the cell plates and replenished with the Assay Media and compounds from the duplicate Assay Ready Plates using the Bravo. The plates were further incubated at 37° C. with 5% CO2. On day 7 the plates containing DLD-1 and Cell Titre Glo 3D (Promega G9683) were equilibrated to room temperature, then 60 μL of Cell Titre Glo 3D was added per well and incubated on a shaking platform for 30 min. Plates were read on the Envision measuring luminescence for 1 second per well. On day 12 the plates containing DLD-1 BRCA2−/− cells and Cell Titre Glo 3D (Promega G9683) were equilibrated to room temperature, then 60 μL Cell Titre Glo 3D added per well and incubated on a shaking platform for 30 min. Plates were read on the Envision measuring luminescence for 1 second per well. The data was exported into a suitable software package (such as Genedata) to perform curve fitting analysis. Inhibition of cell proliferation was expressed as an IC5o value and was determined by calculation of the concentration of compound that was required to give a 50% reduction of the average maximum Total Intensity signal.", "units": {"IC50": "nM"}, "values": [{"smiles": "CCC(C)c1ccc(-c2nc3c(OC4(C)CC4)ncnc3n2Cc2cc(C)ccn2)c(Cl)c1", "note": "(racemic) [Example T232, 8-(4-(sec-butyl)-2-chlorophenyl)-6-(1-methylcyclopropoxy)-9-((4-methylpyridin-2-yl)methyl)-9H-purine]", "IC50": "> 1580"}, {"smiles": "CC(CCOc1ccc(-c2nc3c(OC4(C)CC4)ncnc3n2Cc2cccc(Cl)c2F)c(Cl)c1)C(=O)O", "note": "(racemic) [Example T267, 4-(3-chloro-4-(9-(3-chloro-2-fluorobenzyl)-6-(1-methylcyclopropoxy)-9H-purin-8-yl)phenoxy)-2-methylbutanoic acid]", "IC50": 398}, {"smiles": "CC(CCOc1ccc(-c2nc3c(OC4(C)CC4)ncnc3n2Cc2ccc(F)c(Cl)c2)c(Cl)c1)C(=O)O", "note": "(racemic) [Example T269, 4-(3-chloro-4-(9-(3-chloro-4-fluorobenzyl)-6-(1-methylcyclopropoxy)-9H-purin-8-yl)phenoxy)-2-methylbutanoic acid]", "IC50": 1260}, {"smiles": "CC(CCc1ccc(-c2nc3c(OC4(C)CC4)ncnc3n2Cc2cccc(Cl)c2)c(Cl)c1)C(=O)O", "note": "(racemic) [Example T290, 4-(3-chloro-4-(9-(3-chlorobenzyl)-6-(1-methylcyclopropoxy)-9H-purin-8-yl)phenyl)-2-methylbutanoic acid]", "IC50": 251}, {"smiles": "CC(CCOc1ccc(-c2nc3c(OC4(C)CC4)ncnc3n2Cc2cccc(Cl)c2)c(Cl)c1)C(=O)O", "note": "(racemic) [Example T291, 4-(3-chloro-4-(9-(3-chlorobenzyl)-6-(1-methylcyclopropoxy)-9H-purin-8-yl)phenoxy)-2-methylbutanoic acid]", "IC50": 158}]}, {"tested_on": "DLD-1 BRCA2−/− cells", "assay": "Homologous recombination synthetic lethal inhibition of proliferation, DLD-1 BRCA2-/- (Cell Titre Glo 3D)", "assay_type": "cell-based", "conditions": "Homo sapiens, DLD-1, DLD-1 BRCA2 −/−, mean; read-out: POLQ PD Prolif Lumin BRCA2 −/− mean pIC50 (converted)", "description": "as §1, §2", "units": {"IC50": "nM"}, "values": [{"smiles": "COc1c(Cl)cccc1Cn1c(-c2ccc(OCCC(C)C(=O)O)cc2Cl)nc2c(OC3(C)CC3)ncnc21", "note": "(racemic) [Example U3, 4-(3-chloro-4-(9-(3-chloro-2-methoxybenzyl)-6-(1-methylcyclopropoxy)-9H-purin-8-yl)phenoxy)-2-methylbutanoic acid]", "IC50": 3980}, {"smiles": "COc1ccccc1Cn1c(-c2ccc(OCCC(C)C(=O)O)cc2Cl)nc2c(OC3(C)CC3)ncnc21", "note": "(racemic) [Example U4, 4-(3-chloro-4-(9-(2-methoxybenzyl)-6-(1-methylcyclopropoxy)-9H-purin-8-yl)phenoxy)-2-methylbutanoic acid]", "IC50": 251}, {"smiles": "CC(CCOc1ccc(-c2nc3c(OC4(C)CC4)ncnc3n2Cc2ccccc2F)c(Cl)c1)C(=O)O", "note": "(racemic) [Example U5, 4-(3-chloro-4-(9-(2-fluorobenzyl)-6-(1-methylcyclopropoxy)-9H-purin-8-yl)phenoxy)-2-methylbutanoic acid]", "IC50": 316}, {"smiles": "CC(CCOc1ccc(-c2nc3c(OC4(C)CC4)ncnc3n2Cc2cccc(F)c2)c(Cl)c1)C(=O)O", "note": "(racemic) [Example U6, 4-(3-chloro-4-(9-(3-fluorobenzyl)-6-(1-methylcyclopropoxy)-9H-purin-8-yl)phenoxy)-2-methylbutanoic acid]", "IC50": 251}, {"smiles": "CC(CCOc1ccc(-c2nc3c(OC4(C)CC4)ncnc3n2Cc2ccc(C#N)cc2)c(Cl)c1)C(=O)O", "note": "(racemic) [Example U7, 4-(3-chloro-4-(9-(4-cyanobenzyl)-6-(1-methylcyclopropoxy)-9H-purin-8-yl)phenoxy)-2-methylbutanoic acid]", "IC50": 2510}, {"smiles": "CC(CCCc1ccc(-c2nc3c(OC4(C)CC4)ncnc3n2Cc2ccccc2C#N)c(Cl)c1)C(=O)O", "note": "(racemic) [Example U12, 5-(3-chloro-4-(9-(2-cyanobenzyl)-6-(1-methylcyclopropoxy)-9H-purin-8-yl)phenyl)-2-methylpentanoic acid]", "IC50": 398}, {"smiles": "CC(CCOc1ccc(-c2nc3c(OC4(C)CC4)ncnc3n2Cc2cc(C#N)ccc2F)c(Cl)c1)C(=O)O", "note": "(racemic) [Example U18, 4-(3-chloro-4-(9-(5-cyano-2-fluorobenzyl)-6-(1-methylcyclopropoxy)-9H-purin-8-yl)phenoxy)-2-methylbutanoic acid]", "IC50": 398}, {"smiles": "CC(COc1ccc(-c2nc3c(OC4(C)CC4)ncnc3n2Cc2ccccc2C#N)c(Cl)c1)CC(=O)O", "note": "(racemic) [Example U25, 4-(3-chloro-4-(9-(2-cyanobenzyl)-6-(1-methylcyclopropoxy)-9H-purin-8-yl)phenoxy)-3-methylbutanoic acid]", "IC50": 398}]}, {"tested_on": "DLD-1 BRCA2−/− cells", "assay": "Homologous recombination synthetic lethal inhibition of proliferation, DLD-1 BRCA2-/- (Cell Titre Glo 3D)", "assay_type": "cell-based", "conditions": "Homo sapiens, DLD-1, first proliferation column (c5), taken as DLD-1 BRCA2-/-; read-out: POLQ PD Prolif Lumin (converted)", "description": "as §1, §2", "units": {"IC50": "nM"}, "values": [{"smiles": "Cc1ccnc(Cn2c(-c3ccc(N4CCC(O)CC4=O)cc3Cl)nc3c(OC4(C)CC4)ncnc32)c1", "note": "(racemic) [Example T321, 1-(3-chloro-4-(6-(1-methylcyclopropoxy)-9-((4-methylpyridin-2-yl)methyl)-9H-purin-8-yl)phenyl)-4-hydroxypiperidin-2-one]", "IC50": 3980}]}, {"tested_on": "DLD-1 BRCA2−/− cells", "assay": "Homologous recombination synthetic lethal inhibition of proliferation, DLD-1 BRCA2-/- (Cell Titre Glo 3D)", "assay_type": "cell-based", "conditions": "Homo sapiens, DLD-1, first proliferation column (c5); DLD-1 BRCA2-/-; read-out: POLQ PD Prolif Lumin (converted)", "description": "as §1, §2", "units": {"IC50": "nM"}, "values": [{"smiles": "Cc1ccnc(Cn2c(-c3ccc(C4CCNC4=O)cc3Cl)nc3c(OC4(C)CC4)ncnc32)c1", "note": "(racemic) [Example T176, 3-(3-chloro-4-(6-(1-methylcyclopropoxy)-9-((4-methylpyridin-2-yl)methyl)-9H-purin-8-yl)phenyl)pyrrolidin-2-one]", "IC50": 794}, {"smiles": "Cc1ccnc(Cn2c(-c3ccc(OC4CCNC4=O)cc3Cl)nc3c(OC4(C)CC4)ncnc32)c1", "note": "(racemic) [Example T178, 3-(3-chloro-4-(6-(1-methylcyclopropoxy)-9-((4-methylpyridin-2-yl)methyl)-9H-purin-8-yl)phenoxy)pyrrolidin-2-one]", "IC50": 501}, {"smiles": "Cc1ccnc(Cn2c(-c3ccc(N4CC5CC4CCN5)cc3Cl)nc3c(OC4(C)CC4)ncnc32)c1", "note": "(racemic) [Example T491, 8-(4-(2,6-diazabicyclo[3.2.1]octan-6-yl)-2-chlorophenyl)-6-(1-methylcyclopropoxy)-9-((4-methylpyridin-2-yl)methyl)-9H-purine]", "IC50": 501}, {"smiles": "Cc1ccnc(Cn2c(-c3ccc(N4CCN5CCC4C5)cc3Cl)nc3c(OC4(C)CC4)ncnc32)c1", "note": "(racemic) [Example T493, 8-(4-(1,4-diazabicyclo[3.2.1]octan-4-yl)-2-chlorophenyl)-6-(1-methylcyclopropoxy)-9-((4-methylpyridin-2-yl)methyl)-9H-purine]", "IC50": 251}, {"smiles": "Cc1ccc(C)c(Cn2c(-c3ccc(OCCC(C)C(=O)O)cc3Cl)nc3c(OC4(C)CC4)ncnc32)c1", "note": "(racemic) [Example T569, 4-(3-chloro-4-(9-(2,5-dimethylbenzyl)-6-(1-methylcyclopropoxy)-9H-purin-8-yl)phenoxy)-2-methylbutanoic acid]", "IC50": 631}, {"smiles": "Cc1cccc(Cn2c(-c3ccc(OCCC(C)C(=O)O)cc3Cl)nc3c(OC4(C)CC4)ncnc32)c1C", "note": "(racemic) [Example T570, 4-(3-chloro-4-(9-(2,3-dimethylbenzyl)-6-(1-methylcyclopropoxy)-9H-purin-8-yl)phenoxy)-2-methylbutanoic acid]", "IC50": 398}]}, {"tested_on": "DLD-1 BRCA2−/− cells", "assay": "Homologous recombination synthetic lethal inhibition of proliferation, DLD-1 BRCA2-/- (Cell Titre Glo 3D)", "assay_type": "cell-based", "conditions": "Homo sapiens, DLD-1, first proliferation column; DLD-1 BRCA2-/-; read-out: POLQ PD Prolif Lumin (converted)", "description": "as §1, §2", "units": {"IC50": "nM"}, "values": [{"smiles": "CC(CCOc1ccc(-c2nc3c(OC4(C)CC4)ncnc3n2Cc2cccc(C3CC3)c2)c(Cl)c1)C(=O)O", "note": "(racemic) [Example T601, 4-(3-chloro-4-(9-(3-cyclopropylbenzyl)-6-(1-methylcyclopropoxy)-9H-purin-8-yl)phenoxy)-2-methylbutanoic acid]", "IC50": 794}]}, {"tested_on": "DLD-1 BRCA2−/− cells", "assay": "Homologous recombination synthetic lethal inhibition of proliferation, DLD-1 BRCA2-/- (Cell Titre Glo 3D)", "assay_type": "cell-based", "conditions": "Homo sapiens, DLD-1, proliferation, luminescence, taken as DLD-1 BRCA2-/-; read-out: POLQ PD Prolif Lumin (converted)", "description": "as §1, §2", "units": {"IC50": "nM"}, "values": [{"smiles": "CC(CCCc1ccc(-c2nc3c(OC4(C)CC4)ncnc3n2Cc2cccc(Cl)c2)c(Cl)c1)C(=O)O", "note": "(racemic) [Example T434, 5-(3-chloro-4-(9-(3-chlorobenzyl)-6-(1-methylcyclopropoxy)-9H-purin-8-yl)phenyl)-2-methylpentanoic acid]", "IC50": 158}, {"smiles": "CCC(CCOc1ccc(-c2nc3c(OC4(C)CC4)ncnc3n2Cc2cccc(Cl)c2)c(Cl)c1)C(=O)O", "note": "(racemic) [Example T441, 4-(3-chloro-4-(9-(3-chlorobenzyl)-6-(1-methylcyclopropoxy)-9H-purin-8-yl)phenoxy)-2-ethylbutanoic acid]", "IC50": 158}, {"smiles": "COc1cccc(Cn2c(-c3ccc(OCCC(C)C(=O)O)cc3Cl)nc3c(OC4(C)CC4)ncnc32)c1", "note": "(racemic) [Example T454, 4-(3-chloro-4-(9-(3-methoxybenzyl)-6-(1-methylcyclopropoxy)-9H-purin-8-yl)phenoxy)-2-methylbutanoic acid]", "IC50": 794}]}]}
